Among the data in PubChem BioAssay (NCI) are TGI and GI50 values, retold here.

Among the test systems are UO-31 renal; SNB-75 CNS; OVCAR-5 ovarian; BT-549 breast; RXF 393 renal; OVCAR-3 ovarian; NCI/ADR-RES ovarian; HCC-2998 colon.
Holding throughout (test): inhibition of tumour cell growth, NCI panel, 48 h

SMILES strings stand for the structures.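 48-hour exposure; five concentrations; linearly interpolated endpoints. GI50: concentration for 50% inhibition of growth. TGI is the concentration that stops growth completely.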

As for `ON(CCc1ccncc1)Cc1ccccc1`, the TGI in the assay with UO-31 renal, in the assay with SNB-75 CNS, in the assay on OVCAR-5 ovarian, in the assay with BT-549 breast, with RXF 393 renal and in the assay with OVCAR-3 ovarian was over 100 µM throughout. The compound further registered a TGI in the assay on NCI/ADR-RES ovarian of over 100 µM.
As for `COc1ccc(C2=CC(c3cc(OC)c(OC)c(OC)c3)NC(=O)N2)cc1OC` (stereo not drawn), the GI50 in the assay on UO-31 renal was 2.54 µM; in the assay on HCC-2998 colon, 3.77 µM; in the assay with SNB-75 CNS, 2420 nM; in the assay on OVCAR-5 ovarian it was 2.28 µM; in the assay with RXF 393 renal, 3.04 µM; in the assay on OVCAR-3 ovarian, 2.13 µM. Besides, the GI50 with NCI/ADR-RES ovarian is 3.02 µM. In addition, the TGI with UO-31 renal amounted to 12.8 µM; in the assay with HCC-2998 colon it was 12.6 µM; with SNB-75 CNS, 7.95 µM; in the assay with OVCAR-5 ovarian, 6.42 µM; with RXF 393 renal it was 12.7 µM; in the assay on OVCAR-3 ovarian, 5.05 µM. For the same compound, the TGI in the assay on NCI/ADR-RES ovarian was over 100 µM.
Turning to `O=Nc1c(-c2cccc([N+](=O)[O-])c2)nc2cnccn12`, the TGI was 25.2 µM in the assay on UO-31 renal; over 100 µM with SNB-75 CNS; 44 µM with OVCAR-5 ovarian; over 100 µM in the assay with BT-549 breast; over 100 µM with RXF 393 renal; 37.4 µM in the assay on OVCAR-3 ovarian. Also, the TGI with NCI/ADR-RES ovarian came to 54.5 µM.
Take `O=C1c2ccccc2-c2nccc3cc(Cl)nc1c23`: the GI50 in the assay with HCC-2998 colon is over 48.5 µM; in the assay on SNB-75 CNS, 1930 nM; in the assay on OVCAR-5 ovarian it was over 72.5 µM; in the assay on BT-549 breast, 7.11 µM; in the assay with OVCAR-3 ovarian, 0.631 µM; with NCI/ADR-RES ovarian, 5.16 µM. Besides, the TGI with HCC-2998 colon is over 100 µM; in the assay with SNB-75 CNS it was 9.56 µM; with OVCAR-5 ovarian, over 100 µM; with BT-549 breast it was over 100 µM; with OVCAR-3 ovarian, 1.79 µM; with NCI/ADR-RES ovarian it was over 72.9 µM.
For the compound `O=[N+]([O-])c1cc(O)c(O)cc1-c1cn2ccsc2n1`, the GI50 is 34.1 µM in the assay with UO-31 renal; 43.7 µM in the assay with HCC-2998 colon; over 100000 nM with SNB-75 CNS; over 100 µM in the assay on OVCAR-5 ovarian; over 100 µM in the assay with RXF 393 renal; 23.6 µM in the assay on OVCAR-3 ovarian. Moreover, the GI50 in the assay on NCI/ADR-RES ovarian is 50.6 µM. Moreover, the TGI in the assay on UO-31 renal was over 100 µM; in the assay with HCC-2998 colon, over 100 µM; in the assay with SNB-75 CNS, over 100 µM; in the assay with OVCAR-5 ovarian, over 100 µM; in the assay with RXF 393 renal, over 100 µM; in the assay with OVCAR-3 ovarian, 64 µM. In the assay with NCI/ADR-RES ovarian, this compound returned a TGI of over 100 µM.
Consider `Nc1ccc(-c2nc3ccccc3[nH]2)c(O)c1`, for which the GI50 was 43.8 µM in the assay on UO-31 renal; 87200 nM in the assay on SNB-75 CNS; 36.4 µM with OVCAR-5 ovarian; 50.9 µM in the assay on BT-549 breast; 35.4 µM in the assay on RXF 393 renal; 40.4 µM in the assay with OVCAR-3 ovarian. The GI50 in the assay on NCI/ADR-RES ovarian is 27.8 µM. The TGI with UO-31 renal, in the assay on SNB-75 CNS, in the assay with OVCAR-5 ovarian, in the assay on BT-549 breast, in the assay with RXF 393 renal and in the assay on OVCAR-3 ovarian was over 100 µM throughout. This compound also had a TGI in the assay with NCI/ADR-RES ovarian of 81.1 µM.
`CCON=C1C(C)(C)C(C)(C)C(C)(C)C1(C)C`: the TGI in the assay with SNB-75 CNS, in the assay with OVCAR-5 ovarian, with BT-549 breast, with RXF 393 renal, with OVCAR-3 ovarian and in the assay with NCI/ADR-RES ovarian was over 100 µM throughout.
For `O=C(Cn1c(=O)c(-c2ccccc2)nc2ccccc21)c1cccnc1`, the GI50 with UO-31 renal, with HCC-2998 colon, in the assay with OVCAR-5 ovarian, in the assay with OVCAR-3 ovarian and with NCI/ADR-RES ovarian was over 100 µM each time. Moreover, the TGI with UO-31 renal, in the assay with HCC-2998 colon, in the assay with OVCAR-5 ovarian, with OVCAR-3 ovarian and in the assay on NCI/ADR-RES ovarian was over 100 µM each time.
With `NC(N)=N/N=C/c1c(-c2cccs2)nc2sccn12`, the GI50 is 17 µM in the assay on UO-31 renal; 5660 nM with SNB-75 CNS; 17.5 µM in the assay on OVCAR-5 ovarian; 19.3 µM in the assay on BT-549 breast; 3.66 µM in the assay on OVCAR-3 ovarian; 14.5 µM in the assay with NCI/ADR-RES ovarian. The TGI turned out to be 33.7 µM in the assay on UO-31 renal; 17.1 µM with SNB-75 CNS; 31.3 µM with OVCAR-5 ovarian; 33.6 µM in the assay on BT-549 breast; 18.1 µM with OVCAR-3 ovarian; 27.6 µM in the assay with NCI/ADR-RES ovarian.
For the compound `c1cc(C2CCCCC2)ccc1OCCCCCCN1CCNCC1`, the GI50 with UO-31 renal is 1.62 µM; in the assay with HCC-2998 colon it was 2.14 µM; in the assay with SNB-75 CNS, 1830 nM; in the assay with OVCAR-5 ovarian, 1.75 µM; in the assay on OVCAR-3 ovarian it was 1.82 µM; with NCI/ADR-RES ovarian, 2.36 µM. Further, the TGI in the assay on UO-31 renal came out at 3.38 µM; in the assay with HCC-2998 colon, 3.76 µM; with SNB-75 CNS, 4.5 µM; in the assay with OVCAR-5 ovarian, 3.5 µM; with OVCAR-3 ovarian, 3.57 µM; in the assay on NCI/ADR-RES ovarian, 5.14 µM.
